Results reported in patent US20260116910A1, “POLYCYCLIC COMPOUNDS AND METHODS THEREOF” (HEPAITECH (BEIJING) BIOPHARMA TECHNOLOGY CO., LTD., priority 2021, published 2026).
Where two headings read alike, the source gives them in different places.

How the values were obtained:
human FXR (NR1H4) = molecular target: T1, human FXR (NR1H4) (Homo sapiens, UniProt Q96RI1); experiment: Human FXR (NR1H4) agonist assessment, FXRE-NanoLuc reporter in HEK293T cells; format: cell-based; settings: for EC50: read-out: EC50
T1 sequence (Q96RI1 1-476 isoform Q96RI1-1): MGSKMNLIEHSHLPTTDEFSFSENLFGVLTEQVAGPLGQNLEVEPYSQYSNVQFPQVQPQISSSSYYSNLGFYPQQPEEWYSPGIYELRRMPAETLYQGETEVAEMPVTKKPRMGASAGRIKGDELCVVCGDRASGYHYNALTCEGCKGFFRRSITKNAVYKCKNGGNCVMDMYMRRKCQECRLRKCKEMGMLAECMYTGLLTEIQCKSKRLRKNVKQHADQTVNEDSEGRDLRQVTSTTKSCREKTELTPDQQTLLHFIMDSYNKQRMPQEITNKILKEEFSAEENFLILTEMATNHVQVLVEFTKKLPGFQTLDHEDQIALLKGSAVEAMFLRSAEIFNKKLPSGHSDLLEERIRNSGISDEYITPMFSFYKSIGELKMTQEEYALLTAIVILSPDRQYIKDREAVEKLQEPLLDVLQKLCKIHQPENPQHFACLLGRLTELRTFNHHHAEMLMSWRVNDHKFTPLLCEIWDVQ
How it was run: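 Read-out was NanoLuc luminescence in culture medium, measured 5 min after adding coelenterazine. Cells were HEK293T stably carrying human FXR and an FXRE reporter, exposed to compound for 24 hr at 37 °C. Vehicle was 0.01% DMSO. EC50 was obtained from sigmoid fits of gradient dilutions.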

MRGPRX4 = MRGPRX4 (Homo sapiens, UniProt Q96LA9); experiment: MRGPRX4 activation, Fluo-8 Ca2+ FLIPR assay in HEK293T cells stably expressing MRGPRX4; format: cell-based; set-up: key to MRGPRX4 activation, Average / MRGPRX4 activation, Ave.: fluorescence change dF/F0; settings: for EC50: MRGPRX4 activation, Ca2+ fluorescence, no activation in tested range reported as III, read-out: Activity (EC50 μM)
How it was run: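 Response measured as dF/F0: 30 s baseline, then 150 s after compound addition on FLIPR Tetra, in HHBS after 40-60 min room-temperature loading with 2 μM Fluo-8 AM.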

[1] = FXR activation, HEK293T FXRE-NanoLuc reporter, 24 hr

Sequence of MRGPRX4 (Q96LA9 whole entry): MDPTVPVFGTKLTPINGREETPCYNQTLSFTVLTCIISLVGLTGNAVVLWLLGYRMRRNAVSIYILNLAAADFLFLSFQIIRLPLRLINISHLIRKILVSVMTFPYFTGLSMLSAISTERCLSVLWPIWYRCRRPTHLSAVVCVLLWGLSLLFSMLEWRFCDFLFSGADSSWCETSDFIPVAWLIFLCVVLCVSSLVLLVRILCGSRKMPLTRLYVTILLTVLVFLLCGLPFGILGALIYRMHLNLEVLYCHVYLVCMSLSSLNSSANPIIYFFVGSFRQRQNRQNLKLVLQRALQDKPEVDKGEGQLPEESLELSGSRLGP

CC[C@H]1[C@@H](O)[C@@H]2[C@H](CC[C@]3(C)[C@@H]([C@H](C)CCC(=O)O)CC[C@@H]23)[C@@]2(C)CCCC[C@@H]12 [compound 10]
Efficacy (maximum measured induction of NanoLuc, normalized to CDCA set as 100%) (human FXR (NR1H4)): C (key: A: efficacy >400%; B: 300%<efficacy <=400%; C: 100%<efficacy <=300%; D: efficacy <=100%)
EC50 (human FXR (NR1H4); [1]): 1000 to 10000 nM
MRGPRX4 activation, fluorescence change (dF/F0), Average (MRGPRX4; Conc. (Log[M]) −4): 0.019
MRGPRX4 activation, fluorescence change (dF/F0), Average (MRGPRX4; Conc. (Log[M]) −4.5): −0.031
MRGPRX4 activation, fluorescence change (dF/F0), Average (MRGPRX4; Conc. (Log[M]) −5): −0.037
MRGPRX4 activation, fluorescence change (dF/F0), Average (MRGPRX4; Conc. (Log[M]) −5.5): −0.032
MRGPRX4 activation, fluorescence change (dF/F0), Average (MRGPRX4; Conc. (Log[M]) −6): −0.064
MRGPRX4 activation, fluorescence change (dF/F0), Average (MRGPRX4; Conc. (Log[M]) −7): −0.043
MRGPRX4 activation, fluorescence change (dF/F0), Average (MRGPRX4; Conc. (Log[M]) −8): −0.045
MRGPRX4 activation, fluorescence change (dF/F0), Average (MRGPRX4; Conc. (Log[M]) −9): −0.048
EC50 (MRGPRX4): > 100 µM

CC[C@H]1[C@@H](O)[C@@H]2[C@H](CC[C@]3(C)[C@@H]([C@H](C)CCNC(=O)NS(=O)(=O)c4cc(F)ccc4F)CC[C@@H]23)[C@@]2(C)CC[C@H](F)C[C@@H]12 [9-2]
Efficacy (maximum measured induction of NanoLuc, normalized to CDCA set as 100%) (human FXR (NR1H4); [1]): B (300%<efficacy <=400%)
EC50 (human FXR (NR1H4); [1]): < 1000 nM
MRGPRX4 activation, fluorescence change (dF/F0), Average (MRGPRX4; Conc. (Log[M]) −4): 0.655
MRGPRX4 activation, fluorescence change (dF/F0), Average (MRGPRX4; Conc. (Log[M]) −4.5): 0.162
MRGPRX4 activation, fluorescence change (dF/F0), Average (MRGPRX4; Conc. (Log[M]) −5): 0.011
MRGPRX4 activation, fluorescence change (dF/F0), Average (MRGPRX4; Conc. (Log[M]) −5.5): −0.068
MRGPRX4 activation, fluorescence change (dF/F0), Average (MRGPRX4; Conc. (Log[M]) −6): −0.030
MRGPRX4 activation, fluorescence change (dF/F0), Average (MRGPRX4; Conc. (Log[M]) −7): −0.029
MRGPRX4 activation, fluorescence change (dF/F0), Average (MRGPRX4; Conc. (Log[M]) −8): −0.035
MRGPRX4 activation, fluorescence change (dF/F0), Average (MRGPRX4; Conc. (Log[M]) −9): −0.072
MRGPRX4 activation, Average (MRGPRX4; E3-9, Conc. (Log[M]) −4.0): 0.035
MRGPRX4 activation, Average (MRGPRX4; E3-9, Conc. (Log[M]) −4.5): 0.001
MRGPRX4 activation, Average (MRGPRX4; E3-9, Conc. (Log[M]) −5.0): 0.002
MRGPRX4 activation, Average (MRGPRX4; E3-9, Conc. (Log[M]) −5.4): 0.019
MRGPRX4 activation, Average (MRGPRX4; E3-9, Conc. (Log[M]) −5.9): 0.018
MRGPRX4 activation, Average (MRGPRX4; E3-9, Conc. (Log[M]) −6.4): 0.018
MRGPRX4 activation, Average (MRGPRX4; E3-9, Conc. (Log[M]) −6.9): 0.014
MRGPRX4 activation, Average (MRGPRX4; E3-9, Conc. (Log[M]) −7.3): 0.019
MRGPRX4 activation, Average (MRGPRX4; E3-9, Conc. (Log[M]) −7.8): 0.016
MRGPRX4 activation, Average (MRGPRX4; E3-9, Conc. (Log[M]) −8.3): 0.019
EC50 (MRGPRX4): 50 to 100 µM

CC[C@H]1[C@@H](O)[C@@H]2[C@H](CC[C@]3(C)[C@@H]([C@H](C)CCC(=O)O)CC[C@@H]23)[C@@]2(C)CC[C@H](F)C[C@@H]12 [1-1]
Efficacy (maximum measured induction of NanoLuc, normalized to CDCA set as 100%) (human FXR (NR1H4); [1]): C (100%<efficacy <=300%)
EC50 (human FXR (NR1H4); [1]): 1000 to 10000 nM
EC50 (MRGPRX4): > 100 µM

CC[C@H]1[C@@H](O)[C@@H]2[C@H](CC[C@]3(C)[C@@H]([C@H](C)CCNC(=O)NS(=O)(=O)c4ccc(C(C)(C)C(=O)O)cc4)CC[C@@H]23)[C@@]2(C)CCCC[C@@H]12 [5-10]
Efficacy (maximum measured induction of NanoLuc, normalized to CDCA set as 100%) (human FXR (NR1H4); [1]): C (100%<efficacy <=300%)
EC50 (human FXR (NR1H4); [1]): < 1000 nM
MRGPRX4 activation, fluorescence change (dF/F0), Average (MRGPRX4; Conc. (Log[M]) −4): 0.090
MRGPRX4 activation, fluorescence change (dF/F0), Average (MRGPRX4; Conc. (Log[M]) −4.5): 0.043
MRGPRX4 activation, fluorescence change (dF/F0), Average (MRGPRX4; Conc. (Log[M]) −5): 0.013
MRGPRX4 activation, fluorescence change (dF/F0), Average (MRGPRX4; Conc. (Log[M]) −5.5): 0.017
MRGPRX4 activation, fluorescence change (dF/F0), Average (MRGPRX4; Conc. (Log[M]) −6): 0.020
MRGPRX4 activation, fluorescence change (dF/F0), Average (MRGPRX4; Conc. (Log[M]) −7): 0.030
EC50 (MRGPRX4): > 100 µM

C[C@H](CC/C=C/C(=O)O)[C@H]1CC[C@H]2[C@@H]3CC[C@@H]4C[C@H](O)CC[C@]4(C)[C@H]3CC[C@]12C [1-7]
Efficacy (maximum measured induction of NanoLuc, normalized to CDCA set as 100%) (human FXR (NR1H4); [1]): C (100%<efficacy <=300%)
EC50 (human FXR (NR1H4); [1]): 1000 to 10000 nM
MRGPRX4 activation, fluorescence change (dF/F0), Average (MRGPRX4; Conc. (Log[M]) −4): 0.083
MRGPRX4 activation, fluorescence change (dF/F0), Average (MRGPRX4; Conc. (Log[M]) −4.5): 0.011
MRGPRX4 activation, fluorescence change (dF/F0), Average (MRGPRX4; Conc. (Log[M]) −5): −0.048
MRGPRX4 activation, fluorescence change (dF/F0), Average (MRGPRX4; Conc. (Log[M]) −5.5): −0.037
MRGPRX4 activation, fluorescence change (dF/F0), Average (MRGPRX4; Conc. (Log[M]) −6): −0.044
MRGPRX4 activation, fluorescence change (dF/F0), Average (MRGPRX4; Conc. (Log[M]) −7): −0.045
MRGPRX4 activation, fluorescence change (dF/F0), Average (MRGPRX4; Conc. (Log[M]) −8): −0.040
MRGPRX4 activation, fluorescence change (dF/F0), Average (MRGPRX4; Conc. (Log[M]) −9): −0.034
EC50 (MRGPRX4): < 50 µM

CC[C@H]1[C@@H](O)[C@@H]2[C@H](CC[C@]3(C)[C@@H]([C@H](C)CCNC(=O)NS(=O)(=O)c4ccc(C(C)(C)C)cc4)CC[C@@H]23)[C@@]2(C)CCCC[C@@H]12 [5-1]
Efficacy (maximum measured induction of NanoLuc, normalized to CDCA set as 100%) (human FXR (NR1H4); [1]): B (300%<efficacy <=400%)
EC50 (human FXR (NR1H4); [1]): < 1000 nM
EC50 (MRGPRX4): > 100 µM
